Results: patent US7205296B2, “Substituted 2H-1,3-benzoxazin-4(3H)-ones” (Portola Pharmaceuticals, Inc., priority 2004, dated 2007)

Tests used:
platelet ADP receptors = target: T1, platelet ADP receptors (Homo sapiens, UniProt Q9H244); test: ARB assay: inhibition of [3H]2-MeS-ADP binding to platelets; conditions: IC50 class, [3H]2-MeS-ADP binding to whole human platelets
T1 construct: endogenous in cells; host or cells: whole apyrase-washed human platelets (outdated from blood banks, or fresh)
Procedure: II. Inhibition of [^3H]2-MeS-ADP Binding to Platelets
Utilizing the second assay the potency of inhibition of such compounds with respect to [^3H]2-MeS-ADP binding to whole platelets is determined. [^3H]2-MeS-ADP binding experiments are routinely performed with outdated human platelets collected by standard procedures at hospital blood banks. Apyrase-washed outdated platelets are prepared as follows (all steps at room temperature, if not indicated otherwise):
Outdated platelet suspensions are diluted with 1 volume of CGS and platelets pelleted by centrifugation at 1900×g for 45 minutes. Platelet pellets are resuspended at 3-6×10^9 platelets/ml in CGS containing 1 U/ml apyrase (grade V, Sigma, St. Louis, Mo.) and incubated for 15 minutes at 37° C. After centrifugation at 730×g for 20 minutes, pellets are resuspended in Hepes-Tyrode's buffer containing 0.1% BSA (Sigma, St. Louis, Mo.) at a concentration of 6.66×10^8 platelets/ml. Binding experiments are performed after >45 minutes resting of the platelets.
Alternatively, binding experiments are performed with fresh human platelets prepared as described in I. (Inhibition of ADP-Mediated Platelet Aggregation in vitro), except that platelets are resuspended in Hepes-Tyrode's buffer containing 0.1% BSA (Sigma, St. Louis, Mo.) at a concentration of 6.66×10^8 platelets/ml. Very similar results are obtained with fresh and outdated platelets.
A platelet ADP receptor binding assay using the tritiated potent agonist ligand [^3H]2-MeS-ADP (Jantzen, H. M. et al. (1999) Thromb. Hemost. 81:111–117) has been adapted to the 96-well microtiter format. In an assay volume of 0.2 ml Hepes-Tyrode's buffer with 0.1% BSA and 0.6% DMSO, 1×10^8 apyrase-washed platelets are preincubated in 96-well flat bottom microtiter plates for 5 minutes with serial dilutions of test compounds before addition of 1 nM [^3H]2-MeS-ADP ([^3H]2-methylthioadenosine-5′-diphosphate, ammonium salt; specific activity 48–49 Ci/mmole, obtained by custom synthesis from Amersham Life Science, Inc., Arlington Heights, Ill., or NEN Life Science Products, Boston, Mass.). Total binding is determined in the absence of test compounds. Samples for nonspecific binding may contain 10^−5 M unlabelled 2-MeS-ADP (RBI, Natick, Mass.). After incubation for 15 minutes at room temperature, unbound radioligand is separated by rapid filtration and two washes with cold (4–8° C.) Binding Wash Buffer (10 mM Hepes pH 7.4, 138 mM NaCl) using a 96-well cell harvester (Minidisc 96, Skatron Instruments, Sterling, Va.) and 8×12 GF/C glassfiber filtermats (Printed Filtermat A, for 1450 Microbeta, Wallac Inc., Gaithersburg, Md.). The platelet-bound radioactivity on the filtermats is determined in a scintillation counter (Microbeta 1450, Wallac Inc., Gaithersburg, Md.). Specific binding is determined by […] binding, and specific binding in the presence of test compounds is expressed as % of specific binding in the absence of test compounds dilutions.

[1] = test system: ADP-induced human platelet aggregation; test: PRP assay: inhibition of ADP-mediated platelet aggregation in vitro; assay type: cell-based; conditions: IC50 class
Procedure: I. Inhibition of ADP-Mediated Platelet Aggregation in vitro
The effect of testing the compound according to the invention on ADP-induced human platelet aggregation is preferably assessed in 96-well microtiter assay (see generally the procedures in Jantzen, H. M. et al. (1999) Thromb. Hemost. 81:111–117). Human venous blood is collected from healthy, drug-free volunteers into ACD (85 mM sodium citrate, 111 mM glucose, 71.4 mM citric acid) containing PGI2 (1.25 ml ACD containing 1.6 μM PGI2/10 ml blood; PGI2 was from Sigma, St. Louis, Mo.). Platelet-rich plasma (PRP) is prepared by centrifugation at 160×g for 20 minutes at room temperature. Washed platelets are prepared by centrifuging PRP for 10 minutes at 730×g and resuspending the platelet pellet in CGS (13 mM sodium citrate, 30 mM glucose, 120 mM NaCl; 2 ml CGS/10 ml original blood volume) containing 1 U/ml apyrase (grade V, Sigma, St. Louis, Mo.). After incubation at 37° C. for 15 minutes, the platelets are collected by centrifugation at 730×g for 10 minutes and resuspended at a concentration of 3×10^8 platelets/ml in Hepes-Tyrode's buffer (10 mM Hepes, 138 mM NaCl, 5.5 mM glucose, 2.9 mM KCl, 12 mM NaHCO3, pH 7.4) containing 0.1% bovine serum albumin, 1 mM CaCl2 and 1 mM MgCl2. This platelet suspension is kept >45 minutes at 37° C. before use in aggregation assays.
Inhibition of ADP-dependent aggregation is preferably determined in 96-well flat-bottom microtiter plates using a microtiter plate shaker and plate reader similar to the procedure described by Frantantoni et al., Am. J. Clin. Pathol. 94, 613 (1990). All steps are performed at room temperature. The total reaction volume of 0.2 ml/well includes in Hepes-Tyrodes buffer/0.1% BSA: 4.5×10^7 apyrase-washed platelets, 0.5 mg/ml human fibrinogen (American Diagnostica, Inc., Greenwich, Conn.), serial dilutions of test compounds (buffer for control wells) in 0.6% DMSO. After about 5 minutes preincubation at room temperature, ADP is added to a final concentration of 2 μM which induces submaximal aggregation. Buffer is added instead of ADP to one set of control wells (ADP^− control). The OD of the samples is then determined at 490 nm using a microtiter plate reader (Softmax, Molecular Devices, Menlo Park, Calif.) resulting in the 0 minute reading. The plates are then agitated for 5 min on a microtiter plate shaker and the 5 minute reading is obtained in the plate reader. Aggregation is calculated from the decrease of OD at 490 nm at t=5 minutes compared to t=0 minutes and is expressed as % of the decrease in the ADP control samples after correcting for changes in the unaggregated control samples.

T1 sequence (Q9H244 whole entry): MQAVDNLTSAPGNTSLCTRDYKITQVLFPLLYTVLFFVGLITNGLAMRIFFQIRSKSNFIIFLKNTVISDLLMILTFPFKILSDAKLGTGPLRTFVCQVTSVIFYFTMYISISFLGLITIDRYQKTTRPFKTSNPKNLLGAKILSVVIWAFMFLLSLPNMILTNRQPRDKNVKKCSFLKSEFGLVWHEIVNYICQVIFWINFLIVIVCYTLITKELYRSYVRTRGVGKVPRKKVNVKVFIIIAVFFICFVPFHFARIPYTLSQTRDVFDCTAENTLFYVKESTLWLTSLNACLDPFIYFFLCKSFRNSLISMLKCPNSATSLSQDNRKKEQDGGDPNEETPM

CNc1cc2c(cc1F)C(=O)N(c1ccc(NC(=O)NS(=O)(=O)c3ccc(Cl)s3)cc1)CO2 [Example 5, 1-(5-chlorothiophen-2-ylsulfonyl)-3-(4-(6-fluoro-7-(methylamino)-4-oxo-2H-benzo[e][1,3]oxazin-3(4H)-yl)phenyl)urea]
IC50 (platelet ADP receptors): < 50 nM | IC50 [1]: < 10000 nM

CNc1cc2c(cc1F)C(=O)N(c1ccc(NC(=O)NS(=O)(=O)c3ccc(Cl)s3)c(C)c1)CO2 [Example 10, 1-(5-chlorothiophen-2-ylsulfonyl)-3-(4-(6-fluoro-7-(methylamino)-4-oxo-2H-benzo [e][1,3]oxazin-3(4H)-yl)-2-methylphenyl)urea]
IC50 (platelet ADP receptors): 50 to 500 nM | IC50 [1]: 10000 to 30000 nM

CNc1cc2c(cc1F)C(=O)N(c1ccc(NC(=O)NS(=O)(=O)c3ccc(Cl)s3)cc1OC)CO2 [Example 15, 1-(5-chlorothiophen-2-ylsulfonyl)-3-(4-(6-fluoro-7-(methylamino)-4-oxo-2H-benzo [e][1,3]oxazin-3(4H)-yl)-3-methoxyphenyl)urea]
IC50 (platelet ADP receptors): < 50 nM | IC50 [1]: < 10000 nM

CCOCCOc1cc(NC(=O)NS(=O)(=O)c2ccc(Cl)s2)ccc1N1COc2cc(NC)c(F)cc2C1=O [Example 20, 1-(5-chlorothiophen-2-ylsulfonyl)-3-(3-(2-ethoxyethoxy)-4-(6-fluoro-7-(methylamino)-4-oxo-2H-benzo[e][1,3]oxazin-3(4H)-yl)phenyl)urea]
IC50 (platelet ADP receptors): > 500 nM

CNc1cc2c(cc1F)C(=O)N(c1ccc(NC(=O)NS(=O)(=O)c3ccc(Cl)s3)cc1OCCN(C)C)CO2 [Example 25, 1-(5-chlorothiophen-2-ylsulfonyl)-3-(3-(2-(dimethylamino)ethoxy)-4-(6-fluoro-7-(methylamino)-4-oxo-2H-benzo[e][1,3]oxazin-3(4H)-yl)phenyl)urea]
IC50 (platelet ADP receptors): > 500 nM

CNc1cc2c(cc1F)C(=O)N(c1cc(C)c(NC(=O)NS(=O)(=O)c3ccc(Cl)s3)c(C)c1)CO2 [Example 26, (5-chlorothiophen-2-ylsulfonyl)-3-(4-(6-fluoro-7-(methylamino)-4-oxo-2H-benzo[e][1,3]oxazin-3(4H)-yl)-2,6-dimethylphenyl)urea]
IC50 (platelet ADP receptors): < 50 nM | IC50 [1]: < 10000 nM

CNc1cc2c(cc1F)C(=O)N(c1ccc(NC(=O)NS(=O)(=O)c3ccc(Cl)s3)c(OC)c1)CO2 [Example 27, 1-(5-chlorothiophen-2-ylsulfonyl)-3-(4-(6-fluoro-7-(methylamino)-4-oxo-2H-benzo[e][1,3]oxazin-3(4H)-yl)-2-methoxyphenyl)urea]
IC50 (platelet ADP receptors): < 50 nM | IC50 [1]: > 30000 nM

CNc1cc2c(cc1F)C(=O)N(c1ccc(NC(=O)NS(=O)(=O)c3ccc(Cl)s3)c(OCCOC)c1)CO2 [Example 28, 1-(5-chlorothiophene-2-ylsulfonyl)-3-(4-(6-fluoro-7-(methylamino)-4-oxo-2H-benzo[e][1,3]oxazin-3(4H)-yl)-2-(2-methoxyethoxy)phenyl)urea]
IC50 (platelet ADP receptors): < 50 nM | IC50 [1]: < 10000 nM

CNc1cc2c(cc1F)C(=O)N(c1ccc(NC(=O)NS(=O)(=O)c3ccc(Cl)s3)c(OCCN(C)C)c1)CO2 [Example 34]
IC50 (platelet ADP receptors): 50 to 500 nM | IC50 [1]: 10000 to 30000 nM

CNc1cc2c(cc1F)C(=O)N(c1ccc(NC(=O)NS(=O)(=O)c3ccc(Cl)s3)c(C(=O)N(C)C)c1)CO2 [Example 37, 1-(5-chlorothiophen-2-ylsulfonyl)-3-(2-(dimethylcarbamoyl)-4-(6-fluoro-7-(methylamino)-4-oxo-2H-benzo[e][1,3]oxazin-3(4H)-yl)phenyl)urea]
IC50 (platelet ADP receptors): 50 to 500 nM

CNc1cc2c(cc1F)C(=O)N(c1ccc(NC(=O)NS(=O)(=O)c3ccc(Cl)s3)c(C(N)=O)c1)CO2 [Example 39, 1-(2-carbamoyl-4-(6-fluoro-7-(methylamino)-4-oxo-2H-benzo[e][1,3]oxazin-3(4H)-yl)phenyl)-3-(5-chlorothiophen-2-ylsulfonyl)urea]
IC50 (platelet ADP receptors): < 50 nM | IC50 [1]: < 10000 nM

CNc1cc2c(cc1F)C(=O)N(c1ccc(NC(=O)NS(=O)(=O)c3ccc(Cl)s3)nc1)CO2 [Example 41, 1-(5-chlorothiophen-2-ylsulfonyl)-3-(5-(6-fluoro-7-(methylamino)-4-oxo-2H-benzo[e][1,3]oxazin-3(4H)-yl)pyridin-2-yl)urea]
IC50 (platelet ADP receptors): < 50 nM | IC50 [1]: < 10000 nM

CNc1cc2c(cc1F)C(=O)N(c1cnc(NC(=O)NS(=O)(=O)c3ccc(Cl)s3)c(C)c1)CO2 [Example 42, 1-(5-chlorothiophen-2-ylsulfonyl)-3-(5-(6-fluoro-7-(methylamino)-4-oxo-2H-benzo [e][1,3]oxazin-3(4H)-yl)-3-methylpyridin-2-yl)urea]
IC50 (platelet ADP receptors): < 50 nM | IC50 [1]: < 10000 nM

CNc1cc2c(cc1F)C(=O)N(c1ccc(NC(=O)NS(=O)(=O)c3ccc(C)s3)nc1)CO2 [Example 43]
IC50 (platelet ADP receptors): < 50 nM | IC50 [1]: < 10000 nM

CNc1cc2c(cc1F)C(=O)N(c1ccc(NC(=O)NS(=O)(=O)c3ccc(OC)s3)nc1)CO2 [Example 44, 1-(5-(6-fluoro-7-(methylamino)-4-oxo-2H-benzo[e][1,3]oxazin-3(4H)-yl)pyridin-2-yl)-3-(5-methoxythiophen-2-ylsulfonyl)urea]
IC50 (platelet ADP receptors): 50 to 500 nM | IC50 [1]: > 30000 nM

CNc1cc2c(cc1F)C(=O)N(c1ccc(NC(=O)NS(=O)(=O)c3ccc(OC)s3)cc1)CO2 [Example 45]
IC50 (platelet ADP receptors): < 50 nM | IC50 [1]: > 30000 nM

CNc1cc2c(cc1F)C(=O)N(c1ccc(NC(=O)NS(=O)(=O)c3ccc(C)s3)cc1)CO2 [Example 46, 1-(4-(6-fluoro-7-(methylamino)-4-oxo-2H-benzo[e][1,3]oxazin-3(4H)-yl)-3-5-methylthiophen-2ylsulfonyl)urea]
IC50 (platelet ADP receptors): < 50 nM | IC50 [1]: 10000 to 30000 nM

CNc1cc2c(cc1Cl)C(=O)N(c1ccc(NC(=O)NS(=O)(=O)c3ccc(Cl)s3)cc1)CO2 [Example 51, 1-(5-chlorothiophen-2-ylsulfonyl)-3-(4-(6-chloro-7-(methylamino)-4-oxo-2H-benzo[e][1,3]oxazin-3(4H)-yl)phenyl)urea]
IC50 (platelet ADP receptors): < 50 nM | IC50 [1]: > 30000 nM

CNc1cc2c(cc1F)C(=O)N(c1ccc(C(=O)NS(=O)(=O)c3ccc(Cl)s3)cc1)CO2 [Example 56, N-(5-chlorothiophen-2-ylsulfonyl)-4-(6-fluoro-7-(methylamino) -4-oxo-2H-benzo[e] [1,3]oxazin-3(4H)-yl) benzamide]
IC50 (platelet ADP receptors): < 50 nM | IC50 [1]: < 10000 nM
